Test results from US20140357706A1, “Stearate Compounds” (THE UAB RESEARCH FOUNDATION, priority 2011, published 2014).

Columns and labels:
Type in all cases: cell-based, human
[1] = tested on: p21^CIP1/WAF1, p27^KIP1, pCdk2; assay: Immunoblot of p21CIP1/WAF1, p27KIP1 and phosphorylated Cdk2 in Hs578T cells; conditions: 50 μM stearate, Hs578T
Procedure: (§1) The concentration of stearate used to treat the Hs578T cells was 50 μM. When EGF was used, the concentration was 1 nM EGF. Before the treatment with stearate or EGF, cells were first starved for 24-48 hours. Stearate was loaded onto fatty acid-free bovine serum albumin (BSA) according to the method reported by Spector et al. (13); briefly, stearate (0.5 g) was dissolved in chloroform (100 ml) and mixed well with 10 g diatomaceous earth in a 1 liter flask. The mixture was stirred and dried under nitrogen until powder. BSA is a physiological carrier of fatty acids and was used to avoid the introduction of organic solvents to solutions coming into contact with cells. Fatty acid-free BSA (1 g) was dissolved in 100 ml with Dulbecco's modified Eagle's medium without phenol red and mixed with 3 g of the stearate/diatomaceous earth mixture with stirring for 45 min. The stearate/BSA solution was filtered through a 0.45 μm filter, and adjusted to pH 7.4. The concentration of stearate in the solution was detected with the NEFA C Kit from Wako Chemicals GmbH (Neuss, Germany). All experimental data on Hs578T cells were controlled using fatty acid-free BSA control solutions that were put through the same preparatory procedure described for the stearate/BSA solution except for the fact that no fatty acid was added.
Cells were treated as described above, and lysed with lysis buffer. The supernatants of the lysates or the immunoprecipitates were loaded with Laemmli sample buffer on 10% sodium dodecyl sulfate-polyacrylamide gel electrophoresis gels after boiling at 100° C. for 5 min. Proteins were then transferred to a polyvinylidene difluoride membrane. The membranes were blocked overnight at 4° C. with blocking buffer containing 5% non-fat dried milk powder in Tris-buffered saline-T (25 mM Tris, 140 mM NaCl, 2.7 mM KCl, 0.05% Tween-20, pH 8.0), incubated with primary antibody in blocking buffer at room temperature for 1 hour and incubated with antirabbit or antimouse antibodies labeled with horseradish peroxidase (1:5000) in blocking buffer under the same conditions, and then washed three times for 10 min in Tris-buffered saline-T. The polyvinylidene difluoride membranes were washed and developed using enhanced chemiluminescence reagents.

Ras = Ras activation assay in Hs578T cells; conditions: with or without EGF
Procedure: as §1, with “All experimental data on Hs578T cells were controlled using fatty acid-free BSA control solutions that were put through the same preparatory procedure described for the stearate/BSA solution except for the fact that no fatty acid was added.” left out
(§2) Ras and Rho activation assay kits were purchased from Millipore (Billerica, Mass.). […] The beads were washed three times with lysis buffer B. Bound Ras-GTP and Rho-GTP proteins were detected by immunoblot using Ras and Rho antibodies.

Rho = Rho activation assay in Hs578T cells; conditions: all time points, especially 16 and 24 h post-EGF stimulation; vs controls
Procedure: as §1, with “All experimental data on Hs578T cells were controlled using fatty acid-free BSA control solutions that were put through the same preparatory procedure described for the stearate/BSA solution except for the fact that no fatty acid was added.” left out
as §2

SMILES: CCCCCCCCCCCCCCCCCC(=O)O [stearate, Stearic acid]
- Protein level of p21^CIP1/WAF1 [1]: increases
- Protein level of p27^KIP1 [1]: increases
- pCdk2 [1]: decreased
- Binding of GTP to Ras (Ras): increases
- Rho-GTP (Rho): decreased
